Experimental findings from US9073855B2, “BCL-2 selective apoptosis-inducing agents for the treatment of cancer and immune diseases” (AbbVie Inc., priority 2008, dated 2015) are described below.

The target in assay [1] is GST-Bcl-2 (Homo sapiens, UniProt P10415). Nature of the assay: TR-FRET binding assay, GST-Bcl-2 with F-Bak peptide probe. The conditions noted are these: TR-FRET Binding Affinity. The method, then:
(§1) Tb-anti-GST antibody was purchased from Invitrogen (Catalog No. PV4216).
(§2) Representative compounds were serially diluted in dimethyl sulfoxide (DMSO) starting at 50 μM (2× starting concentration; 10% DMSO) and 10 μL were transferred into a 384-well plate.
(§3) The samples were then mixed on a shaker for 1 minute and incubated for an additional 3 hours at room temperature. For each assay, the probe/antibody and protein/probe/antibody were included on each assay plate as negative and positive controls, respectively. Fluorescence was measured on the ENVISION plate reader (Perkin Elmer) using a 340/35 nm excitation filter and 520/525 (F-Bak peptide) and 495/510 nm (Tb-labeled […] antibody) emission filters.
(§4) The inhibition constant (Ki) is the dissociation constant of an enzyme-inhibitor complex or a protein/small molecule complex, wherein the small molecule is inhibiting binding of one protein to another protein or peptide. […] Inhibition constants were determined using Wang's equation (Wang Z-X., An Exact Mathematical Expression For Describing Competitive Binding Of Two Different Ligands To A Protein Molecule. FEBS Lett. 1995, 360:111-4).
In general terms: Time-resolved FRET reads energy transfer from a long-lived donor to a nearby acceptor.

Assay [2] deals with GST-Bcl-XL (Homo sapiens, UniProt Q07817). The assay is described as follows: TR-FRET binding assay, GST-Bcl-XL with F-Bak peptide probe. The settings on record: TR-FRET Binding Affinity, GST-Bcl-XL, F-Bak peptide probe. The method, then:
as §1, §2, §3, §4

GST-Bcl-2, sequence (P10415 whole entry): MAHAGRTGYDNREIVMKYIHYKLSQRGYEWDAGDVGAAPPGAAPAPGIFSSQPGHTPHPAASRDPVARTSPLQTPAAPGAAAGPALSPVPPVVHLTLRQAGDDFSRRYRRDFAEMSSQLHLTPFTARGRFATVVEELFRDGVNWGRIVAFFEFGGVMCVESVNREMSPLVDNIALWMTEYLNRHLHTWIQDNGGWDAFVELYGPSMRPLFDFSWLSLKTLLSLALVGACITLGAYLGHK
GST-Bcl-XL, sequence (Q07817 whole entry): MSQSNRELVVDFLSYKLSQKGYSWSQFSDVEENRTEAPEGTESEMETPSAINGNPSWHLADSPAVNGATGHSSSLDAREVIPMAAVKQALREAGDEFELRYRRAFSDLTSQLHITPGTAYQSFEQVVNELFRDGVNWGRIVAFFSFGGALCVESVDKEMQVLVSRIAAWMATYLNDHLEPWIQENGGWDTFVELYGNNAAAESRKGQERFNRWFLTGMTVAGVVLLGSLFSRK

By Ki is commonly meant a measure of affinity in units of concentration, obtained from inhibition or displacement. On to `O=C(NS(=O)(=O)c1ccc(NCC2CCOCC2)c([N+](=O)[O-])c1)c1ccc(N2CCN(Cc3ccccc3-c3ccc(Cl)cc3)CC2)cc1Oc1ccccc1` [Example 1, 4-{4-[(4′-chloro-1,1′-biphenyl-2-yl)methyl]piperazin-1-yl}-N-({3-nitro-4-[(tetrahydro-2H-pyran-4-ylmethyl)amino]phenyl}sulfonyl)-2-phenoxybenzamide], for which the Ki came out at 6.77 nM in assay [1] (GST-Bcl-2, F-Bak peptide probe) and 578 nM in assay [2].

With `CC1(C)CCC(c2ccc(Cl)cc2)=C(CN2CCN(c3ccc(C(=O)NS(=O)(=O)c4ccc(NCCCN5CCOCC5)c([N+](=O)[O-])c4)c(Oc4ccccc4)c3)CC2)C1` [Example 19, 4-(4-{[2-(4-chlorophenyl)-5,5-dimethylcyclohex-1-en-1-yl]methyl}piperazin-1-yl)-N-({4-[(3-morpholin-4-ylpropyl)amino]-3-nitrophenyl}sulfonyl)-2-phenoxybenzamide], the inhibition constant Ki in assay [1] (GST-Bcl-2, F-Bak peptide probe) was 0.847 nM; in assay [2] it was 20 nM.

Turning to `CC1(C)CCC(CN2CCN(c3ccc(C(=O)NS(=O)(=O)c4ccc(NCCCN5CCOCC5)c([N+](=O)[O-])c4)c(Oc4ccc5[nH]ncc5c4)c3)CC2)=C(c2ccc(Cl)cc2)C1` [Example 20, 4-(4-{[2-(4-chlorophenyl)-4,4-dimethylcyclohex-1-en-1-yl]methyl}piperazin-1-yl)-2-(1H-indazol-5-yloxy)-N-({4-[(3-morpholin-4-ylpropyl)amino]-3-nitrophenyl}sulfonyl)benzamide], the Ki in assay [1] (GST-Bcl-2, F-Bak peptide probe) amounted to 2.36 nM; in assay [2], 77.6 nM.

Regarding `O=C(NS(=O)(=O)c1ccc(N2C(=O)C3CCC3C2=O)cc1)c1ccc(N2CCN(Cc3ccccc3-c3ccc(Cl)cc3)CC2)cc1Oc1ccccc1` (stereo not shown) [Example 28, 4-{4-[(4′-chloro-1,1′-biphenyl-2-yl)methyl]piperazin-1-yl}-N-{[4-(2,4-dioxo-3-azabicyclo[3.2.0]hept-3-yl)phenyl]sulfonyl}-2-phenoxybenzamide], the Ki in assay [1] (GST-Bcl-2, F-Bak peptide probe) is 33.7 nM; in assay [2], more than 660 nM.

With `CC1CC(=O)NN=C1c1ccc(S(=O)(=O)NC(=O)c2ccc(N3CCN(Cc4ccccc4-c4ccc(Cl)cc4)CC3)cc2Oc2ccccc2)cc1` (stereo not shown) [Example 29, 4-{4-[(4′-chloro-1,1′-biphenyl-2-yl)methyl]piperazin-1-yl}-N-{[4-(4-methyl-6-oxo-1,4,5,6-tetrahydropyridazin-3-yl)phenyl]sulfonyl}-2-phenoxybenzamide], the Ki was 11.9 nM in assay [1] (GST-Bcl-2, F-Bak peptide probe) and more than 660 nM in assay [2].

For `O=C(NS(=O)(=O)c1ccc(NCCCN2CCOCC2)c([N+](=O)[O-])c1)c1ccc(N2CCN(Cc3ccccc3-c3ccc(Cl)cc3)CC2)cc1Oc1ccc2[nH]ccc2c1` [Example 59, 4-{4-[(4′-chloro-1,1′-biphenyl-2-yl)methyl]piperazin-1-yl}-2-(1H-indol-5-yloxy)-N-({4-[(3-morpholin-4-ylpropyl)amino]-3-nitrophenyl}sulfonyl)benzamide], the Ki in assay [2] amounted to 1260 nM.

`CN1[C@@H]2CC[C@H]1CC(Nc1ccc(S(=O)(=O)NC(=O)c3ccc(N4CCN(CC5=C(c6ccc(Cl)cc6)CC(C)(C)CC5)CC4)cc3Oc3ccc4[nH]ccc4c3)cc1[N+](=O)[O-])C2` (stereo partly drawn) [Example 467, 4-(4-{[2-(4-chlorophenyl)-4,4-dimethylcyclohex-1-en-1-yl]methyl}piperazin-1-yl)-2-(1H-indol-5-yloxy)-N-[(4-{[(1R,5S)-8-methyl-8-azabicyclo[3.2.1]oct-3-yl]amino}-3-nitrophenyl)sulfonyl]benzamide] gave a Ki in assay [1] of 0.08 nM.

Consider `COCC1(C)CCC(c2ccc(Cl)cc2)=C(CN2CCN(c3ccc(C(=O)NS(=O)(=O)c4cnc(OCC5CCC(C)(O)CC5)c(Cl)c4)c(Oc4cccc5[nH]ncc45)c3)CC2)C1` (stereo not drawn) [Example 539, N-({5-chloro-6-[(trans-4-hydroxy-4-methylcyclohexyl)methoxy]pyridin-3-yl}sulfonyl)-4-(4-{[2-(4-chlorophenyl)-5-(methoxymethyl)-5-methylcyclohex-1-en-1-yl]methyl}piperazin-1-yl)-2-(1H-indazol-4-yloxy)benzamide], for which the Ki in assay [1] is less than 0.01 nM.

`CC1(C)CCC(CN2CCN(c3ccc(C(=O)NS(=O)(=O)c4ccc(NC[C@H]5CN(C6COC6)CCO5)c([N+](=O)[O-])c4)c(Oc4cccc5[nH]ncc45)c3)CC2)=C(c2ccc(Cl)cc2)C1` [Example 540, 4-(4-{[2-(4-chlorophenyl)-4,4-dimethylcyclohex-1-en-1-yl]methyl}piperazin-1-yl)-2-(1H-indazol-4-yloxy)-N-{[3-nitro-4-({[(2S)-4-(oxetan-3-yl)morpholin-2-yl]methyl}amino)phenyl]sulfonyl}benzamide]: the inhibition constant Ki in assay [1] is less than 0.01 nM.

In assay [1], `CC1(C)CCC(CN2CCN(c3ccc(C(=O)NS(=O)(=O)c4ccc(NC[C@H]5CN(C6COC6)CCO5)c([N+](=O)[O-])c4)c(Oc4cccc5[nH]cnc45)c3)CC2)=C(c2ccc(Cl)cc2)C1` [Example 541, 2-(1H-benzimidazol-4-yloxy)-4-(4-{[2-(4-chlorophenyl)-4,4-dimethylcyclohex-1-en-1-yl]methyl}piperazin-1-yl)-N-{[3-nitro-4-({[(2S)-4-(oxetan-3-yl)morpholin-2-yl]methyl}amino)phenyl]sulfonyl}benzamide] had a Ki of 0.167 nM.

With `CC1(C)CCC(CN2CCN(c3ccc(C(=O)NS(=O)(=O)c4cnc(OCC5CCC(C)(O)CC5)c(C#N)c4)c(Oc4cccc5[nH]ncc45)c3)CC2)=C(c2ccc(Cl)cc2)C1` (stereo not drawn) [Example 544, 4-(4-{[2-(4-chlorophenyl)-4,4-dimethylcyclohex-1-en-1-yl]methyl}piperazin-1-yl)-N-({5-cyano-6-[(trans-4-hydroxy-4-methylcyclohexyl)methoxy]pyridin-3-yl}sulfonyl)-2-(1H-indazol-4-yloxy)benzamide], in assay [1], the inhibitory constant (Ki) was less than 0.01 nM.

In the case of `CC1(C)CCC(CN2CCN(c3ccc(C(=O)NS(=O)(=O)c4cnc(OCC5(F)CCC(C#N)CC5)c(Cl)c4)c(Oc4cccc5[nH]ncc45)c3)CC2)=C(c2ccc(Cl)cc2)C1` (stereo not drawn) [Example 549, N-({5-chloro-6-[(cis-4-cyano-1-fluorocyclohexyl)methoxy]pyridin-3-yl}sulfonyl)-4-(4-{[2-(4-chlorophenyl)-4,4-dimethylcyclohex-1-en-1-yl]methyl}piperazin-1-yl)-2-(1H-indazol-4-yloxy)benzamide], the Ki in assay [1] is less than 0.01 nM.

As for `COC1(C)CCC(c2ccc(Cl)cc2)=C(CN2CCN(c3ccc(C(=O)NS(=O)(=O)c4cnc(OCC5CCC(C)(O)CC5)c(Cl)c4)c(Oc4cccc5[nH]ncc45)c3)CC2)C1` (stereo not drawn) [Example 553, N-({5-chloro-6-[(trans-4-hydroxy-4-methylcyclohexyl)methoxy]pyridin-3-yl}sulfonyl)-4-(4-{[2-(4-chlorophenyl)-5-methoxy-5-methylcyclohex-1-en-1-yl]methyl}piperazin-1-yl)-2-(1H-indazol-4-yloxy)benzamide], the inhibitory constant (Ki) in assay [1] is less than 0.01 nM.

For `CC1(C)CCC(CN2CCN(c3ccc(C(=O)NS(=O)(=O)c4cnc(NCC5CCC(C)(O)CC5)c([N+](=O)[O-])c4)c(Oc4cccc5[nH]ncc45)c3)CC2)=C(c2ccc(Cl)cc2)C1` (stereo not drawn) [Example 555, 4-(4-{[2-(4-chlorophenyl)-4,4-dimethylcyclohex-1-en-1-yl]methyl}piperazin-1-yl)-N-[(6-{[(cis-4-hydroxy-4-methylcyclohexyl)methyl]amino}-5-nitropyridin-3-yl)sulfonyl]-2-(H-indazol-4-yloxy)benzamide], the Ki in assay [1] was less than 0.01 nM.
